Test results published in publication PMC7520419 (The AAPS Journal, 2020).
Where a name gives a salt, the structure may show the parent alone.

assay: pKa; details: pKa (b, basic)
Throughout, for Observed AUC(0-inf) Fasted: test concentration or dose not given here.
Throughout, for Observed AUC(0-inf) Fed: test concentration or dose not given here.
Throughout, for Observed Cmax Fasted: test concentration or dose not given here.
Throughout, for Observed Cmax Fed: test concentration or dose not given here.

pKa | SMILES
9.8 | CNCCC(Oc1ccc(C(F)(F)F)cc1)c1ccccc1 (centres unmarked) [Fluoxetine HCl]
9.7 | Cc1cn([C@H]2C[C@H](N=[N+]=[N-])[C@@H](CO)O2)c(=O)[nH]c1=O [Zidovudine]

assay: not given; details: Model 1; fasted; ref published clinical data (Table I); cited from earlier work

SMILES | Observed AUC(0-inf) Fasted [ng·h/mL] | Observed Cmax Fasted [ng/mL]
CNCCC(Oc1ccc(C(F)(F)F)cc1)c1ccccc1 (centres unmarked) [Fluoxetine HCl] | 1930 | 39.3
Cc1cn([C@H]2C[C@H](N=[N+]=[N-])[C@@H](CO)O2)c(=O)[nH]c1=O [Zidovudine] | 2480 | 1130

same assay, conditions: Model 1; fed; ref published clinical data (Table I); cited from earlier work

SMILES | Observed AUC(0-inf) Fed [ng·h/mL] | Observed Cmax Fed [ng/mL]
CNCCC(Oc1ccc(C(F)(F)F)cc1)c1ccccc1 (centres unmarked) [Fluoxetine HCl] | 1340 | 35.7
Cc1cn([C@H]2C[C@H](N=[N+]=[N-])[C@@H](CO)O2)c(=O)[nH]c1=O [Zidovudine] | 2170 | 632

same assay, conditions: Model 2; fasted; ref published clinical data (Table I); cited from earlier work

SMILES | Observed AUC(0-inf) Fasted [ng·h/mL] | Observed Cmax Fasted [ng/mL]
C#C[C@]1(O)CC[C@H]2[C@@H]3CCC4=Cc5oncc5C[C@]4(C)[C@H]3CC[C@@]21C [Danazol] | 231 | 37
CNCCC(Oc1ccc(C(F)(F)F)cc1)c1ccccc1 (centres unmarked) [Fluoxetine HCl] | 1930 | 39.3

same assay, conditions: Model 2; fed; ref published clinical data (Table I); cited from earlier work

SMILES | Observed AUC(0-inf) Fed [ng·h/mL] | Observed Cmax Fed [ng/mL]
C#C[C@]1(O)CC[C@H]2[C@@H]3CCC4=Cc5oncc5C[C@]4(C)[C@H]3CC[C@@]21C [Danazol] | 668 | 101
CNCCC(Oc1ccc(C(F)(F)F)cc1)c1ccccc1 (centres unmarked) [Fluoxetine HCl] | 1340 | 35.7

same assay, conditions: clinically observed PK change (AUC, Cmax) fed vs fasted; compiled by literature search; cited from earlier work

SMILES | Food Effect
O=c1[nH]cnc2c1ncn2[C@H]1CC[C@@H](CO)O1 [Didanosine] | Negative (negative if ratio fasted > fed)
O=C1Nc2ccc(Cl)cc2[C@@](C#CC2CC2)(C(F)(F)F)O1 [Efavirenz] | Positive (positive if the ratio of fed > fasted)
CCCCCCCNC(=O)Oc1ccc2c(c1)[C@]1(C)CCN(C)[C@@H]1N2C [Eptastigmine] | Negative (negative if ratio fasted > fed)
C#Cc1cccc(Nc2ncnc3cc(OCCOC)c(OCCOC)cc23)c1 [Erlotinib] | Positive (positive if the ratio of fed > fasted)
C#C[C@]1(O)CC[C@H]2[C@@H]3CCc4cc(O)ccc4[C@H]3CC[C@@]21C [Ethinyl estradiol] | None (none if no significant change in AUC and Cmax with food)
CC(C)OC(=O)C(C)(C)Oc1ccc(C(=O)c2ccc(Cl)cc2)cc1 [Fenofibrate] | Positive (positive if the ratio of fed > fasted)
CC(C)(C(=O)O)c1ccc(C(O)CCCN2CCC(C(O)(c3ccccc3)c3ccccc3)CC2)cc1 (centres unmarked) [Fexofenadine] | Negative (negative if ratio fasted > fed)
CNCCC(Oc1ccc(C(F)(F)F)cc1)c1ccccc1 (centres unmarked) [Fluoxetine hydrochloride] | None (none if no significant change in AUC and Cmax with food)
Nc1nc(O)c2ncn(COC(CO)CO)c2n1 [Ganciclovir] | None (none if no significant change in AUC and Cmax with food)
NNc1nncc2ccccc12 [Hydralazine] | Negative (negative if ratio fasted > fed)
NS(=O)(=O)c1cc2c(cc1Cl)NCNS2(=O)=O [Hydrochlorothiazide] | None (none if no significant change in AUC and Cmax with food)
CC(C)Cn1cnc2c(N)nc3ccccc3c21 [Imiquimod] | None (none if no significant change in AUC and Cmax with food)
CCCCC1=NC2(CCCC2)C(=O)N1Cc1ccc(-c2ccccc2-c2nnn[nH]2)cc1 [Irbesartan] | None (none if no significant change in AUC and Cmax with food)
O=[N+]([O-])O[C@@H]1CO[C@H]2[C@@H]1OC[C@@H]2O [Isosorbide Mononitrite] | None (none if no significant change in AUC and Cmax with food)
CC1=C(/C=C/C(C)=C/C=C/C(C)=C\C(=O)O)C(C)(C)CCC1 [Isotretinoin] | Positive (positive if the ratio of fed > fasted)
Cc1c(OCC(F)(F)F)ccnc1C[S+]([O-])c1nc2ccccc2[nH]1 (centres unmarked) [Lansoprazole] | None (none if no significant change in AUC and Cmax with food)
CS(=O)(=O)CCNCc1ccc(-c2ccc3ncnc(Nc4ccc(OCc5cccc(F)c5)c(Cl)c4)c3c2)o1 [Lapatinib] | Positive (positive if the ratio of fed > fasted)
CN(C)C(=N)N=C(N)N [Metformin] | None (none if no significant change in AUC and Cmax with food)
CCc1nn(CCCN2CCN(c3cccc(Cl)c3)CC2)c(=O)n1CCOc1ccccc1 [Nefazodone hydrochloride] | Negative (negative if ratio fasted > fed)
CC1COc2c(N3CCN(C)CC3)c(F)cc3c(=O)c(C(=O)O)cn1c23 (centres unmarked) [Ofloxacin] | None (Absorption delayed but extent not substantially affected) (none if no significant change in AUC and Cmax with food)
CCOC(=O)C1=C[C@@H](OC(CC)CC)[C@H](NC(C)=O)[C@@H](N)C1 [Oseltamavir] | None (none if no significant change in AUC and Cmax with food)
CC[C@@H]([C@H](C)O)n1ncn(-c2ccc(N3CCN(c4ccc(OC[C@@H]5CO[C@@](Cn6cncn6)(c6ccc(F)cc6F)C5)cc4)CC3)cc2)c1=O [Posaconazole] | Positive (positive if the ratio of fed > fasted)
CNC(=O)c1cc(Oc2ccc(NC(=O)Nc3ccc(Cl)c(C(F)(F)F)c3)c(F)c2)ccn1 [Regorafenib] | Positive (positive if the ratio of fed > fasted)
NC(=O)c1ncn([C@@H]2O[C@H](CO)[C@@H](O)[C@H]2O)n1 [Ribavirin] | Positive (positive if the ratio of fed > fasted)

SMILES | Food Effect
CC(C)c1nc(CN(C)C(=O)N[C@H](C(=O)N[C@@H](Cc2ccccc2)C[C@H](O)[C@H](Cc2ccccc2)NC(=O)OCc2cncs2)C(C)C)cs1 [Ritonavir] | None (none if no significant change in AUC and Cmax with food)
CS(=O)(=O)c1ccc(C2=C(c3ccccc3)C(=O)OC2)cc1 [Rofecoxib] | None (none if no significant change in AUC and Cmax with food)
CC(C)c1nc(N(C)S(C)(=O)=O)nc(-c2ccc(F)cc2)c1/C=C/[C@@H](O)C[C@@H](O)CC(=O)O [Rosuvastatin] | Negative (negative if ratio fasted > fed)
N#CC[C@H](C1CCCC1)n1cc(-c2ncnc3[nH]ccc23)cn1 [Ruxolitinib] | None (none if no significant change in AUC and Cmax with food)
CC(C)(C)NC(=O)[C@@H]1C[C@@H]2CCCC[C@@H]2CN1C[C@@H](O)[C@H](Cc1ccccc1)NC(=O)[C@H](CC(N)=O)NC(=O)c1ccc2ccccc2n1 [Saquinavir] | Positive (positive if the ratio of fed > fasted)
COc1cccc(CCc2ccccc2OCC(CN(C)C)OC(=O)CCC(=O)O)c1 (centres unmarked) [Sarpogrelate] | Negative (negative if ratio fasted > fed)
CN[C@H]1CC[C@@H](c2ccc(Cl)c(Cl)c2)c2ccccc21 [Sertraline] | None (none if no significant change in AUC and Cmax with food)
N[C@@H](CC(=O)N1CCn2c(nnc2C(F)(F)F)C1)Cc1cc(F)c(F)cc1F [Sitagliptin] | None (none if no significant change in AUC and Cmax with food)
Cc1c(C(=O)Nc2ccc(N3C[C@@H](C)O[C@@H](C)C3)nc2)cccc1-c1ccc(OC(F)(F)F)cc1 [Sonidegib] | Positive (positive if the ratio of fed > fasted)
CC(C)(C)c1nc(-c2cccc(NS(=O)(=O)c3c(F)cccc3F)c2F)c(-c2ccnc(N)n2)s1 [Tafinlar] | Negative (negative if ratio fasted > fed)
CCOc1ccccc1OCCN[C@H](C)Cc1ccc(OC)c(S(N)(=O)=O)c1 [Tamsulosin hydrochloride] | Negative (negative if ratio fasted > fed)
CCC[C@H](NC(=O)[C@@H]1[C@H]2CCC[C@H]2CN1C(=O)[C@@H](NC(=O)[C@@H](NC(=O)c1cnccn1)C1CCCCC1)C(C)(C)C)C(=O)C(=O)NC1CC1 [Telapravir] | Positive (positive if the ratio of fed > fasted)
Cc1ccc(O)c([C@H](CCN(C(C)C)C(C)C)c2ccccc2)c1 [Tolterodine tartrate] | None (none if no significant change in AUC and Cmax with food)
CC1(C)O[C@@H]2[C@@H](CO[C@@]3(COS(N)(=O)=O)OC(C)(C)O[C@@H]23)O1 [Topiramate] | None (none if no significant change in AUC and Cmax with food)
CSc1nc2cc(Cl)c(Oc3cccc(Cl)c3Cl)cc2[nH]1 [Triclabendazole] | Positive (positive if the ratio of fed > fasted)
Cc1c(C)c2c(c(C)c1O)CCC(C)(COc1ccc(CC3SC(=O)NC3=O)cc1)O2 (centres unmarked) [Troglitazone] | Positive (positive if the ratio of fed > fasted)
O=C(O[C@H]1C[C@H]2CC[C@@H](C1)[N+]21CCCC1)C(O)(c1ccccc1)c1ccccc1 [Trospium Chloride] | Negative (negative if ratio fasted > fed)
Cc1onc(-c2ccccc2)c1-c1ccc(S(N)(=O)=O)cc1 [Valdecoxib] | None (none if no significant change in AUC and Cmax with food)
CCCS(=O)(=O)Nc1ccc(F)c(C(=O)c2c[nH]c3ncc(-c4ccc(Cl)cc4)cc23)c1F [Vemurafenib] | Positive (positive if the ratio of fed > fasted)
Nc1ccn([C@H]2CC[C@@H](CO)O2)c(=O)n1 [Zalcitabine] | None (none if no significant change in AUC and Cmax with food)
Cc1cn([C@H]2C[C@H](N=[N+]=[N-])[C@@H](CO)O2)c(=O)[nH]c1=O [Zidovudine] | Negative (negative if ratio fasted > fed)
O=C1Cc2cc(CCN3CCN(c4nsc5ccccc45)CC3)c(Cl)cc2N1 [Ziprasidone hydrochloride] | Positive (positive if the ratio of fed > fasted)
CN(C)CCc1c[nH]c2ccc(C[C@H]3COC(=O)N3)cc12 [Zolmitriptan] | None (none if no significant change in AUC and Cmax with food)

same assay, conditions: ref drug label; cited from earlier work

SMILES | food effect (FE) direction
CNCCC(Oc1ccc(C(F)(F)F)cc1)c1ccccc1 (centres unmarked) [Fluoxetine HCl] | no FE
NS(=O)(=O)c1cc(C(=O)O)c(NCc2ccco2)cc1Cl [Furosemide] | negative FE
Cc1cn([C@H]2C[C@H](N=[N+]=[N-])[C@@H](CO)O2)c(=O)[nH]c1=O [Zidovudine] | negative FE
